# Test results taken from patent publication US4346076A, “Bis-tetrazoylmethyl substituted cephalosporin antibiotics” (Eli Lilly and Company, priority 1980, dated 1982).
# Read-outs that look alike come from different tables or passages of the source.
# Legend:
# Streptococcus pneumoniae = assay: in vitro antibacterial activity, agar dilution; assay type: cell-based; conditions: strain PARK, read-out: Minimum Inhibitory Concentration
# Excerpt: (§1) The bis-tetrazol-thiomethyl substituted cephalosporins of this invention are broad spectrum antibiotics which inhibit the growth of both gram positive and gram negative microorganisms which are pathogenic to man and animals. […] The following Table 2 lists the minimum inhibitory concentrations of representative compounds of the invention.
# (§2) The data in TABLE 2 were obtained in the agar dilution test method using Mueller-Hinton agar containing two percent Supplement C (Difco). Serial two-fold dilutions were run with the highest concentration on test at 128 mcg/ml.
# Streptococcus Group A = assay: in vitro antibacterial activity, agar dilution; assay type: cell-based; conditions: strain C203; read-out: Minimum Inhibitory Concentration
# Excerpt: as §1, §2
# [1] = system: Bordetella bronchoseptica; assay: in vitro antibacterial activity, agar dilution; assay type: cell-based; conditions: strain 16, read-out: Minimum Inhibitory Concentration
# Excerpt: as §1, §2
# Escherichia coli = assay: in vitro antibacterial activity, agar dilution; assay type: cell-based
# Excerpt: as §1, §2
# Shigella sonnei = assay: in vitro antibacterial activity, agar dilution; assay type: cell-based; conditions: strain N9, read-out: Minimum Inhibitory Concentration
# Excerpt: as §1, §2
# Pseudomonas aeruginosa = assay: in vitro antibacterial activity, agar dilution; assay type: cell-based
# Excerpt: as §1, §2
# Haemophilus influenzae = assay: in vitro antibacterial activity, agar dilution; assay type: cell-based
# Excerpt: as §1, §2
# Proteus inconstans = assay: in vitro antibacterial activity, agar dilution; assay type: cell-based; conditions: Providencia alcalifaciens, read-out: Minimum Inhibitory Concentration
# Excerpt: as §1, §2
# Streptococcus Group D = assay: in vitro antibacterial activity, agar dilution; assay type: cell-based; conditions: read-out: Minimum Inhibitory Concentration
# Excerpt: as §1, §2
# [2] = system: Staphylococcus epidermidis; assay: in vitro antibacterial activity, agar dilution; assay type: cell-based
# Excerpt: as §1, §2
# Klebsiella sp. = assay: in vitro antibacterial activity, agar dilution; assay type: cell-based
# Excerpt: as §1, §2
# Enterobacter aerogenes = assay: in vitro antibacterial activity, agar dilution; assay type: cell-based; conditions: Klebsiella aerogenes, read-out: Minimum Inhibitory Concentration
# Excerpt: as §1, §2
# Proteus morganii = assay: in vitro antibacterial activity, agar dilution; assay type: cell-based; conditions: Morganella morganii; strain PR15; read-out: Minimum Inhibitory Concentration
# Excerpt: as §1, §2
# Staphylococcus aureus = assay: in vitro antibacterial activity, agar dilution; assay type: cell-based
# Excerpt: as §1, §2
# Enterobacter cloacae = assay: in vitro antibacterial activity, agar dilution; assay type: cell-based
# Excerpt: as §1, §2
# Salmonella sp. = assay: in vitro antibacterial activity, agar dilution; assay type: cell-based
# Excerpt: as §1, §2
# Serratia marcescens = assay: in vitro antibacterial activity, agar dilution; assay type: cell-based
# Excerpt: as §1, §2
# Proteus rettgeri = assay: in vitro antibacterial activity, agar dilution; assay type: cell-based
# Excerpt: as §1, §2
# Citrobacter freundii = assay: in vitro antibacterial activity, agar dilution; assay type: cell-based; conditions: strain CF17, read-out: Minimum Inhibitory Concentration
# Excerpt: as §1, §2
# [3] = system: Serratia marcescens (SE3); assay: in vivo activity in infected mice; conditions: sc, doses at 1 and 5 hours post infection
# Description: (§3) Compound E (TABLE 2), a preferred compound of the invention, was administered to mice infected with various pathogens to determine the compound's effective dose (ED50). Listed below in TABLE 3 are the ED50 values determined with the indicated infectious organism. | ^1 Subcutaneous doses at 1 and 5 hours post infection
# Proteus vulgaris (PV2S) = assay: in vivo activity in infected mice; conditions: sc, doses at 1 and 5 hours post infection
# Description: as §3
# Escherichia coli (EC14) = assay: in vivo activity in infected mice; conditions: sc, doses at 1 and 5 hours post infection
# Description: as §3
# [4] = system: Staphylococcus aureus (3055); assay: in vivo activity in infected mice; conditions: sc, doses at 1 and 5 hours post infection
# Description: as §3
# [5] = system: Streptococcus pyogenes (C203); assay: in vivo activity in infected mice; conditions: sc, doses at 1 and 5 hours post infection
# Description: as §3
# [6] = levels in cerebro-spinal fluid of rats; assay type: in vivo; conditions: 20 mg/kg s.c.
# [7] = system: ampicillin-resistant Haemophilus influenzae; assay: treatment of ampicillin-resistant Haemophilus influenzae meningitis in infant rats; assay type: in vivo
# [8] = read-out: Minimum Inhibitory Concentration
smiles,measurement,setting,value
"CO/N=C(\C(=O)N[C@@H]1C(=O)N2C(C(=O)O)=C(CSc3nnnn3Cc3nnn[nH]3)CS[C@H]12)c1csc(N)n1 [Compound E, syn 7β-[α-methoximino-α-(2-amino-1,3-thiazol-4-yl)-acetamido]-3-[1-(1H-tetrazol-5-ylmethyl)-1H-tetrazol-5-ylthiomethyl]-3-cephem-4-carboxylic acid]",MIC,Streptococcus pneumoniae,0.03 µg/mL
same,MIC,Streptococcus Group A,0.06 µg/mL
same,MIC,[1],32 µg/mL
same,MIC,Escherichia coli; [8],0.125 µg/mL
same,MIC,"Escherichia coli; strain EC14, read-out: Minimum Inhibitory Concentration",0.06 µg/mL
same,MIC,"Escherichia coli; strain N10, read-out: Minimum Inhibitory Concentration",0.25 µg/mL
same,MIC,Shigella sonnei,0.125 µg/mL
same,MIC,"Pseudomonas aeruginosa; strain Ps18, read-out: Minimum Inhibitory Concentration",8 µg/mL
same,MIC,"Pseudomonas aeruginosa; strain X239, read-out: Minimum Inhibitory Concentration",16 µg/mL
same,MIC,"Pseudomonas aeruginosa; strain X528, read-out: Minimum Inhibitory Concentration",8 µg/mL
same,MIC,"Haemophilus influenzae; Haemophilus influenzae, read-out: Minimum Inhibitory Concentration",0.125 µg/mL
same,Minimum Inhibitory Concentration,"Haemophilus influenzae; strain 251, resistant strain",.125 µg/mL
same,MIC,Proteus inconstans,0.125 µg/mL
same,MIC,Streptococcus Group D; strain 9960,16 µg/mL
same,MIC,Streptococcus Group D; strain X66,> 128 µg/mL
same,MIC,"[2]; strain EPI1, read-out: Minimum Inhibitory Concentration",16 µg/mL
same,MIC,"[2]; strain EPI2, read-out: Minimum Inhibitory Concentration",64 µg/mL
same,MIC,"Klebsiella sp.; strain KAE, read-out: Minimum Inhibitory Concentration",16 µg/mL
same,MIC,"Klebsiella sp.; strain X26, read-out: Minimum Inhibitory Concentration",0.06 µg/mL
same,MIC,Enterobacter aerogenes; strain C32,0.25 µg/mL
same,MIC,Enterobacter aerogenes; strain EB17,0.25 µg/mL
same,MIC,Enterobacter aerogenes; strain X68,0.06 µg/mL
same,MIC,Proteus morganii,0.06 µg/mL
same,MIC,Staphylococcus aureus; [8],16 µg/mL
same,MIC,"Staphylococcus aureus; strain V41, read-out: Minimum Inhibitory Concentration",8 µg/mL
same,MIC,"Staphylococcus aureus; strain X1.1, read-out: Minimum Inhibitory Concentration",4 µg/mL
same,MIC,"Staphylococcus aureus; strain X400, read-out: Minimum Inhibitory Concentration",> 128 µg/mL
same,MIC,"Enterobacter cloacae; strain 265A, read-out: Minimum Inhibitory Concentration",64 µg/mL
same,MIC,"Enterobacter cloacae; strain EB5, read-out: Minimum Inhibitory Concentration",2 µg/mL
same,MIC,"Salmonella sp.; strain 1335, read-out: Minimum Inhibitory Concentration",0.25 µg/mL
same,MIC,"Salmonella sp.; strain X514, read-out: Minimum Inhibitory Concentration",0.125 µg/mL
same,MIC,"Serratia marcescens; strain SE3, read-out: Minimum Inhibitory Concentration",1 µg/mL
same,MIC,"Serratia marcescens; strain X93, read-out: Minimum Inhibitory Concentration",0.25 µg/mL
same,MIC,"Proteus rettgeri; Providencia rettgeri, read-out: Minimum Inhibitory Concentration",0.125 µg/mL
same,Minimum Inhibitory Concentration,Proteus rettgeri; strain C24,.125 µg/mL
same,MIC,Citrobacter freundii,32 µg/mL
same,ED50,[3],1 mg/kg
same,ED50,Proteus vulgaris (PV2S),0.12 mg/kg
same,ED50,Escherichia coli (EC14),0.16 mg/kg
same,ED50,[4],7.6 mg/kg
same,ED50,[5],0.21 mg/kg
same,levels in the cerebro-spinal fluid,[6],present in effective levels
same,effectiveness in treatment of meningitis,[7],effective in the treatment
